One block for each compound: values may come before it.
Tests used:
[1] = test system: HepG2; test: Cytotoxicity against human HepG2 cells assessed as reduction in cell viability incubated for 72 hrs by MTT assay; format: functional, cell-based; conditions: HepG2, 72 h
[2] = test system: HCT-116; test: Cytotoxicity against human HCT-116 cells assessed as reduction in cell viability incubated for 72 hrs by MTT assay; format: functional, cell-based; conditions: HCT-116, 72 h
[3] = test system: MCF7; test: Cytotoxicity against human MCF7 cells assessed as reduction in cell viability incubated for 72 hrs by MTT assay; format: functional, cell-based; conditions: MCF7, 72 h
[4] = test system: MCF7; test: Antiproliferative activity against human MCF7 cells assessed as reduction in cell viability; format: functional, cell-based
[5] = target: T1, Vascular endothelial growth factor receptor 2 (Homo sapiens, UniProt P35968); test: Inhibition of VEGFR2 (unknown origin)
[6] = target: Hepatocyte growth factor receptor (Homo sapiens, UniProt P08581); test: Inhibition of c-Met (unknown origin)
[7] = test system: MHCC97H; test: Antiproliferative activity against human MHCC97H cells assessed as reduction in cell viability incubated for 48 hrs by CCK-8 assay; format: functional, cell-based
[8] = Cytotoxicity against human HUVEC cells assessed as reduction in cell viability by CCK-8 assay; format: toxicity, cell-based
[9] = target: T1, Vascular endothelial growth factor receptor 2; test: Inhibition of human VEGFR-2 by ELISA method
[10] = test system: HepG2; test: Antiproliferative activity against human HepG2 cells assessed as reduction in cell growth incubated for 24 hrs by MTT assay; format: functional, cell-based; conditions: HepG2, 24 h
[11] = test system: MCF7; test: Antiproliferative activity against human MCF7 cells assessed as reduction in cell growth incubated for 24 hrs by MTT assay; format: functional, cell-based; conditions: MCF7, 24 h
[12] = test system: HCT-116; test: Antiproliferative activity against human HCT-116 cells assessed as reduction in cell growth incubated for 24 hrs by MTT assay; format: functional, cell-based; conditions: HCT-116, 24 h
[13] = target: T1, Vascular endothelial growth factor receptor 2; test: Inhibition of VEGFR2 (unknown origin) using Poly-(Glu,Tyr 4:1) peptide as substrate incubated for 1 hr by ELISA method
[14] = test system: HepG2; test: Cytotoxicity against human HepG2 cells assessed as reduction in cell growth incubated for 48 hrs by MTT assay; format: functional, cell-based; conditions: HepG2, 48 h
[15] = test system: HCT-116; test: Cytotoxicity against human HCT-116 cells assessed as reduction in cell growth incubated for 48 hrs by MTT assay; format: functional, cell-based; conditions: HCT-116, 48 h
[16] = test system: MCF7; test: Cytotoxicity against human MCF7 cells assessed as reduction in cell viability incubated for 48 hrs by MTT assay; format: functional, cell-based; conditions: MCF7, 48 h
[17] = test system: EA.hy 926; test: Antiproliferative activity against human EA.hy 926 cells assessed as reduction in cell viability incubated for 48 hrs by MTT assay; format: functional, cell-based; conditions: EA.hy 926, 48 h
[18] = test system: U-87 MG; test: Antiproliferative activity against human U87 cells assessed as inhibition of cell viability incubated for 72 hrs by MTT assay; format: functional, cell-based, U-87MG ATCC
[19] = target: T1, Vascular endothelial growth factor receptor 2; test: Inhibition of GST-tagged human recombinant VEGFR2
[20] = test system: HepG2; test: Antiproliferative activity against human HepG2 cells assessed as cell growth inhibition incubated for 24 hrs by MTT assay; format: functional, cell-based; conditions: HepG2, 24 h
[21] = test system: PC-3; test: Antiproliferative activity against human PC-3 cells assessed as cell growth inhibition incubated for 24 hrs by MTT assay; format: functional, cell-based; conditions: PC-3, 24 h
[22] = test system: WI-38; test: (§1) Antiproliferative activity against human WI-38 cells assessed as cell growth inhibition incubated for 24 hrs by MTT assay; format: toxicity, cell-based; conditions: wi-38
[23] = target: RAC-alpha serine/threonine-protein kinase (Homo sapiens, UniProt P31749); test: Inhibition of AKT1 (unknown origin)
[24] = test system: HepG2; test: Antiproliferative activity against human HepG2 cells assessed as inhibition of cell growth incubated for 24 hrs by MTT assay; format: functional, cell-based; conditions: HepG2, 24 h
[25] = test system: MCF7; test: Antiproliferative activity against human MCF7 cells assessed as inhibition of cell growth incubated for 24 hrs by MTT assay; format: functional, cell-based; conditions: MCF7, 24 h
[26] = test system: HCT-116; test: Antiproliferative activity against human HCT-116 cells assessed as inhibition of cell growth incubated for 24 hrs by MTT assay; format: functional, cell-based; conditions: HCT-116, 24 h
[27] = test system: MCF7; test: Cytotoxicity against human MCF7 cells assessed as reduction in cell viability; format: functional, cell-based
[28] = as §1; format: toxicity, cell-based; conditions: human, WI-38 cells
[29] = Half life in human at 140 mg
[30] = Tmax in human at 140 mg; format: ADME
[31] = Cmax in human at 140 mg; format: ADME

T1 sequence (P35968 whole entry): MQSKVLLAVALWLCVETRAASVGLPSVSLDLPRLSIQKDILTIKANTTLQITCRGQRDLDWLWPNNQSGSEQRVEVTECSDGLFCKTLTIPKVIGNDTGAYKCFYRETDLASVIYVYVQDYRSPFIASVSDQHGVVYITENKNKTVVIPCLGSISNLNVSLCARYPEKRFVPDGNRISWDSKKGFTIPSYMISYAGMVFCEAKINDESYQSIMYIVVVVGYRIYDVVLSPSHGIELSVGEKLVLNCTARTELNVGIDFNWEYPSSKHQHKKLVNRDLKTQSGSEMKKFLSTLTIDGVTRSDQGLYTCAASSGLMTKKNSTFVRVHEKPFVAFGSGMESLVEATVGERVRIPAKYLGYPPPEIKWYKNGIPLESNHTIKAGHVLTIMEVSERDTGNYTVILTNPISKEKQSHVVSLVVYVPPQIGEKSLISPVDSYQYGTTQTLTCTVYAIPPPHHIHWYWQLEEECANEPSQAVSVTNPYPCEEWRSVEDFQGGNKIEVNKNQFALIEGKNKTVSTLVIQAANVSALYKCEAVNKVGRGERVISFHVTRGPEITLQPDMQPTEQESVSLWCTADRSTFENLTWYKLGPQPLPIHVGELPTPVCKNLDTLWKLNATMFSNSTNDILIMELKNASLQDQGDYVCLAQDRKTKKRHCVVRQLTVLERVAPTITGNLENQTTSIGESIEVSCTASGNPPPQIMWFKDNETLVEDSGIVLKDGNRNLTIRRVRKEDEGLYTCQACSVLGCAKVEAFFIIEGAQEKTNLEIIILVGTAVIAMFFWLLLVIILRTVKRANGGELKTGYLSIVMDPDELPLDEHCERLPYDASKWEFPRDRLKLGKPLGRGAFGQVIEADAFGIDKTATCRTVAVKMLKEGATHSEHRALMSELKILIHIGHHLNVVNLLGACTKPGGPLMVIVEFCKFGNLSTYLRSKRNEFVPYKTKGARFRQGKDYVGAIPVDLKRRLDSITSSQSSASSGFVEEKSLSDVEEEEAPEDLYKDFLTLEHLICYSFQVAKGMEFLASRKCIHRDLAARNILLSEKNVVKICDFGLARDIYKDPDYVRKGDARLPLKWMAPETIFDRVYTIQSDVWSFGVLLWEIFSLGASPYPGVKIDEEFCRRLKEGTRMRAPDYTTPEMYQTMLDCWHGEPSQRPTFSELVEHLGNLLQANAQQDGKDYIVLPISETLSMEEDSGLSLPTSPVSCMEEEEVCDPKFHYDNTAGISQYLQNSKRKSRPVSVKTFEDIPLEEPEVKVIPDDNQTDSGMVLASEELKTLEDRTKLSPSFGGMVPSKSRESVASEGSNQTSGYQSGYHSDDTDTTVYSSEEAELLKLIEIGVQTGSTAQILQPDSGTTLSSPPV
RAC-alpha serine/threonine-protein kinase, sequence (P31749 whole entry): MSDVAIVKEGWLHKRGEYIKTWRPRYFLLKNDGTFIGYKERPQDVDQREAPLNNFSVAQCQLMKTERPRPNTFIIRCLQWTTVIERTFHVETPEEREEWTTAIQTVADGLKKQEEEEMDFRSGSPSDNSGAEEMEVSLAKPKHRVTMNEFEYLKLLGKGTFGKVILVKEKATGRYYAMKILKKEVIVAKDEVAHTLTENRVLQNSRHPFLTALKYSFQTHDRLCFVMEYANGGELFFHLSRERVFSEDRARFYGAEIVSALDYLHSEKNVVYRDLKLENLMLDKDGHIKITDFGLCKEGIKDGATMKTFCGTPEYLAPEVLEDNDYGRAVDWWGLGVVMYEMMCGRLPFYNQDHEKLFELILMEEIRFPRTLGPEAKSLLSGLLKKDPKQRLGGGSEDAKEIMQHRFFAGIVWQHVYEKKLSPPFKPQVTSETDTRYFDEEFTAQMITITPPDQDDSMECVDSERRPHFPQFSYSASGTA
Hepatocyte growth factor receptor, sequence (P08581 whole entry): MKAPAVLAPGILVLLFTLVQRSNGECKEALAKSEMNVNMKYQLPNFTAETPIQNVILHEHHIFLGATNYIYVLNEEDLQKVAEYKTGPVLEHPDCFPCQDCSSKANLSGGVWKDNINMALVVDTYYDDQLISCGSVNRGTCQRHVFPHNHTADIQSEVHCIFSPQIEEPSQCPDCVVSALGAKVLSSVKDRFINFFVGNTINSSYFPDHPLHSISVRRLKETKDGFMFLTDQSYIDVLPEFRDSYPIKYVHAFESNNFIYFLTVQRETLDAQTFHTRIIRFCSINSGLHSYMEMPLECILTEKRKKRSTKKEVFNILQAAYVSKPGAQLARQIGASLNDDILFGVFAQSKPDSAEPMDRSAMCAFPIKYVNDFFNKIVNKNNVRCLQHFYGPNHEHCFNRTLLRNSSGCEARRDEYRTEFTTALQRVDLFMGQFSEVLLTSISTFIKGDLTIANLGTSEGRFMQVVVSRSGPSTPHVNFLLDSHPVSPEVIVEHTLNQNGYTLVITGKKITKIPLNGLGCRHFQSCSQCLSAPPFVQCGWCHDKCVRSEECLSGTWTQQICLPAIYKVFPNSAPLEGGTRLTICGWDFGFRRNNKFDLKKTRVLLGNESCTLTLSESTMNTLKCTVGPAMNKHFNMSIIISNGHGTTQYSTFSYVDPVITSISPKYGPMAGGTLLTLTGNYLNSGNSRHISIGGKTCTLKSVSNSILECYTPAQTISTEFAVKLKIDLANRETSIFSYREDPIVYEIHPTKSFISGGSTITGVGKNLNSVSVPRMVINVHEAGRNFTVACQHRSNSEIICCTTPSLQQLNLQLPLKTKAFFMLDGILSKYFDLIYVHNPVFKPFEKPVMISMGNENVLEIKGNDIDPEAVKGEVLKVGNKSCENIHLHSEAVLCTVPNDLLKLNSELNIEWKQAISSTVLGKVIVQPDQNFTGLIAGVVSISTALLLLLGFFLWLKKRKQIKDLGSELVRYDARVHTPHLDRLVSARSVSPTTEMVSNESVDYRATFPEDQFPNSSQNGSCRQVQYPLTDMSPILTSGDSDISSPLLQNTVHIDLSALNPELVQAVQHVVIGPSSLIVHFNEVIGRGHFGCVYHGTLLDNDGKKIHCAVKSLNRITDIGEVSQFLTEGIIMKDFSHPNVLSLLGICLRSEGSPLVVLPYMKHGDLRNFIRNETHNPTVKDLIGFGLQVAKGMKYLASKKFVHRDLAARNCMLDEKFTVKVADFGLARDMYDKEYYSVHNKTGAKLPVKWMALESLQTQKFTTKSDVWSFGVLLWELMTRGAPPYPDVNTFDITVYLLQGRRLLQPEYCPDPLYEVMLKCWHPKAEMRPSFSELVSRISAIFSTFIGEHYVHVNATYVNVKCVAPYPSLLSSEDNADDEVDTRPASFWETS

Compound: CCOC(=O)c1ccc(NC(=O)c2ccc(NC(=O)CN3C(=O)S/C(=C\c4ccccc4)C3=O)cc2)cc1
IC50 [1]: 11.2 µM | IC50 [2]: 8.99 µM | IC50 [3]: 7.1 µM

IC50 [4]: 8.84 µM
Compound: COCCOCCOCCOCCOCCOC(=O)c1cc(C(=O)OCCOCCOCCOCCOCCOC)cc(-n2cc(Cn3ncc4ccccc4c3=O)nn2)c1

IC50 [5]: 0.0048 µM | IC50 [6]: 0.0058 µM
Compound: COCCOc1cc2ncnc(Nc3ccc(NC(=O)CC(=O)Nc4ccc(F)cc4)cc3F)c2c2c1OCCO2
IC50 [7]: 0.0157 µM | IC50 [8]: 0.0008 µM

IC50 [9]: 2.5 µM | IC50 [10]: 3.97 µM | IC50 [11]: 4.83 µM | IC50 [12]: 4.58 µM
Compound: CCn1c(SCC(=O)Nc2ccc(/C(C)=N/O)cc2)nc2ccccc2c1=O

Compound: Cc1cc(C)nc(NS(=O)(=O)c2ccc(/N=N/c3ccc(C4=NCC(=O)N(C)c5ccc(Cl)cc54)cc3)cc2)n1
IC50 [13]: 0.0001 µM | IC50 [14]: 8.98 µM | IC50 [15]: 7.77 µM | IC50 [16]: 6.99 µM

IC50 [5]: 0.23 µM | IC50 [18]: 63.6 µM
Compound: O=C(Nc1ccc(Oc2ccnc(C(=O)NCCCCNC(=O)C3CC4C=CC3C4)c2)cc1)Nc1ccc(Cl)c(C(F)(F)F)c1 (configuration not stated)
IC50 [17]: 0.047 µM

IC50 [19]: 0.126 µM | IC50 [20]: 3.11 µM | IC50 [21]: 2.15 µM | IC50 [23]: 6.96 µM
Compound: CN1CCC2=C1C1C(=O)NC(c3ccccc3)=NC1S2 (configuration not stated)
IC50 [22]: 12.5 µM

IC50 [9]: 0.34 µM | IC50 [12]: 3.74 µM | IC50 [24]: 3.74 µM | IC50 [25]: 5 µM | IC50 [26]: 6.77 µM
Compound: C/C(=N\NC(=O)c1ccccc1O)c1ccc(NC(=O)CSc2nc3ccccc3c(=O)n2-c2ccccc2)cc1

IC50 [5]: 0.07 µM
Compound: Cc1ccc2oc(CCCC(=O)Nc3ccc(S(=O)(=O)NC(=O)NC4CCCCC4)cc3)nc2c1
IC50 [27]: 5.5 µM

IC50 [20]: 3.02 µM | IC50 [21]: 3.12 µM
Compound: CCOC(=O)c1c(NC(=S)Nc2cc(C)ccc2Cl)sc2c1N(C)CC2
IC50 at 24 h [28]: 35.3 µM

half-life [29]: 112 h | Tmax [30]: 4 h | Cmax [31]: 554 ng/mL
Compound: COc1cc2nccc(Oc3ccc(NC(=O)C4(C(=O)Nc5ccc(F)cc5)CC4)cc3)c2cc1OC [CABOZANTINIB]
